One data set addresses Cytochrome P450 2C9 (Homo sapiens, UniProt P11712). As to conditions: bti-tn-5b1-4.
For another data set, the target named is Melanocortin receptor 3 (Homo sapiens, UniProt P41968). The class given is cell membranes, Membrane. As to conditions: hek293. Further: in other assays of this panel Not Active means under 50% inhibition at 10 µM.
The target of data set [1] is Mitogen-activated protein kinase 14 (Homo sapiens, UniProt Q16539). Details: species or system Escherichia coli.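 Further: inhibition of p38alpha enzyme activity in a biochemical kinase assay, with myelin basic protein serving as substrate; in other assays of this panel Not Active means under 50% inhibition at 10 µM.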
Mitogen-activated protein kinase 14, sequence (Q16539 whole entry): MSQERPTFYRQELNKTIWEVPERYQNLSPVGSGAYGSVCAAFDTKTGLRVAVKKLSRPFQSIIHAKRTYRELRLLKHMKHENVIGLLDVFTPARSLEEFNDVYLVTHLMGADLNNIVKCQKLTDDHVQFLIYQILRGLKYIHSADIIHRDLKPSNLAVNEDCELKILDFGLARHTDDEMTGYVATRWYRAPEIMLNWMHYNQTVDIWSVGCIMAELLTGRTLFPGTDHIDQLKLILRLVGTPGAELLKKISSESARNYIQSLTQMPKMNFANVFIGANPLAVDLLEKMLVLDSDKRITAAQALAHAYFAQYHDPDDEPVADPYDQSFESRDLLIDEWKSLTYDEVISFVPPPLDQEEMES
Data set [2] has as its target Beta-2 adrenergic receptor (Homo sapiens, UniProt P07550). Kind of data set: DRUGMATRIX: Adrenergic beta2 radioligand binding (ligand: [3H] CGP-12177). The format is cell membranes, Membrane. As to conditions: cho; Not Active = under 50% inhibition at 10 µM.
Data set [3] is described as follows: DRUGMATRIX: Potassium Channel [KATP] radioligand binding (ligand: [3H] Glyburide). The format is cell membranes, Membrane. To be noted: hit-t15; Not Active = under 50% inhibition at 10 µM.
For a further data set, the target named is T1, Leukotriene C4 synthase (Cavia porcellus, UniProt A6XA80).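 Further: enzyme inhibition assay of leukotriene C4 synthase, using LTA4 as the substrate; in other assays of this panel Not Active means under 50% inhibition at 10 µM.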
T1 sequence (A6XA80 whole entry): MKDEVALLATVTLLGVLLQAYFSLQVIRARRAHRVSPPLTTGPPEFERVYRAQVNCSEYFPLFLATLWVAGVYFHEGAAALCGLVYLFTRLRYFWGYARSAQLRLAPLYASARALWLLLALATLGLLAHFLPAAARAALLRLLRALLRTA
The format is tissue-based, Lung.

The target of data set [4] is Protein phosphatase 3 catalytic subunit alpha (Homo sapiens, UniProt Q08209). Also noted: species or system Escherichia coli.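 Further: inhibition of calcineurin (PP2B) enzyme activity, measured with DiFMUP as the substrate; in other assays of this panel Not Active means under 50% inhibition at 10 µM.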
For another data set, the target named is Cytochrome P450 2C19 (Homo sapiens, UniProt P33261). As to conditions: bti-tn-5b1-4. Further: in other assays of this panel Not Active means under 50% inhibition at 10 µM.
Cytochrome P450 2C19, sequence (P33261 whole entry): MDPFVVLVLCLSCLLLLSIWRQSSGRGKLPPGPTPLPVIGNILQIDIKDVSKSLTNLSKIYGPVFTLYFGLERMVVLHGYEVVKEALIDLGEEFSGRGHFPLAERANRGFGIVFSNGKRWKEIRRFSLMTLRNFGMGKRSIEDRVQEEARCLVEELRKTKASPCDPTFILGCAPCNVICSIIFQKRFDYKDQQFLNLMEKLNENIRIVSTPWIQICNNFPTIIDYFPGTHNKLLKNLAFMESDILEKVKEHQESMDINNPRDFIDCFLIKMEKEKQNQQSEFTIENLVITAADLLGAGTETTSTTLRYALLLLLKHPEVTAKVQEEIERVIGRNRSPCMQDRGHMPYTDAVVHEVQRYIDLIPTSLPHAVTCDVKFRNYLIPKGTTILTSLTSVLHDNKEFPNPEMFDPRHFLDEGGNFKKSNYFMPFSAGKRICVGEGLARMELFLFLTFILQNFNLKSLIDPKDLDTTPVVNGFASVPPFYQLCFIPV
In data set [5] the target is T2, Alpha-2A adrenergic receptor (Homo sapiens, UniProt P08913). Further: in other assays of this panel Not Active means under 50% inhibition at 10 µM.
T2 sequence (P08913 whole entry): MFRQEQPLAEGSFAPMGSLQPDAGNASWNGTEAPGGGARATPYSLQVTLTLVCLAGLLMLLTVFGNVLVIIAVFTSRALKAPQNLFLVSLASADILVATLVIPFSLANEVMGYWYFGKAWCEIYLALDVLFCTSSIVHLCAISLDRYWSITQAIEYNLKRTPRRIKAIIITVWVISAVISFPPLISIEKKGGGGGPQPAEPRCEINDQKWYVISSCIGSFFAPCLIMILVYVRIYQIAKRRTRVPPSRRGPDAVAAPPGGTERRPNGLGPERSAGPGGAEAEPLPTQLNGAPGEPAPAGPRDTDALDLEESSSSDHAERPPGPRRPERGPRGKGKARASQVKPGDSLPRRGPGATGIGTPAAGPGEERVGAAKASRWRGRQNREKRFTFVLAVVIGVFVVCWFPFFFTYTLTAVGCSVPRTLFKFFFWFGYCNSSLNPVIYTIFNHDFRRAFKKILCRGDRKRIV
The format is cell membranes, Sf9, Membrane. As to conditions: sf9.

In a further data set the target is T3, Progesterone receptor (Bos taurus, UniProt Q690N0).
T3 sequence (Q690N0 whole entry): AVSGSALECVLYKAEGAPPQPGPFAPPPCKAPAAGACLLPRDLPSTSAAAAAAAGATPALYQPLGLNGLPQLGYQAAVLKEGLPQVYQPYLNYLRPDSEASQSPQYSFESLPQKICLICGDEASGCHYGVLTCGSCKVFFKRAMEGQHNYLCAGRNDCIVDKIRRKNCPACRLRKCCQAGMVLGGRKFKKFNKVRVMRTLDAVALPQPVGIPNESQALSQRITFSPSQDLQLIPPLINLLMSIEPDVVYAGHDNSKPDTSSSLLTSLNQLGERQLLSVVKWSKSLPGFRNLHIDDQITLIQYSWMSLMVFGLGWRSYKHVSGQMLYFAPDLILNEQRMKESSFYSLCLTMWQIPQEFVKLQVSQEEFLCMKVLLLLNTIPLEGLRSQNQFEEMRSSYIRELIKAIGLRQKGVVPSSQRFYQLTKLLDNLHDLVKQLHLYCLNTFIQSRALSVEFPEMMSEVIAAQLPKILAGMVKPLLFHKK
Kind of data set: DRUGMATRIX: Progesterone radioligand binding (ligand: [3H] R-5020). The format is tissue-based, Uterus. As to conditions: Not Active = under 50% inhibition at 10 µM.

Data set [6] has as its target C-C chemokine receptor type 2 (Homo sapiens, UniProt P41597). The format is cell membranes, CHO-K1, Membrane. To be noted: cho-k1. Further: in other assays of this panel Not Active means under 50% inhibition at 10 µM.

pIC50: −log10 of the molar value.

Beta-2 adrenergic receptor, sequence (P07550 whole entry): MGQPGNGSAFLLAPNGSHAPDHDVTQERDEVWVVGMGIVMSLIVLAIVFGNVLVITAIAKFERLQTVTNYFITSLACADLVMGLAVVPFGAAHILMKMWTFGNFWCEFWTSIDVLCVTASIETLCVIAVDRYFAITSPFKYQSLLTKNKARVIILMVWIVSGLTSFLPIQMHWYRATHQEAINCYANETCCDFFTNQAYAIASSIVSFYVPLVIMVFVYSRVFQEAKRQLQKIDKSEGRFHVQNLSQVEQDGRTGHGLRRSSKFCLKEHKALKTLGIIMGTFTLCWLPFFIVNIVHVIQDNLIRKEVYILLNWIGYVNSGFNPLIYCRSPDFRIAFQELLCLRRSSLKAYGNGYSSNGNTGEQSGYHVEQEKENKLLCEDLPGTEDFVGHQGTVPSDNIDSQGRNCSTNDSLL
C-C chemokine receptor type 2, sequence (P41597 whole entry): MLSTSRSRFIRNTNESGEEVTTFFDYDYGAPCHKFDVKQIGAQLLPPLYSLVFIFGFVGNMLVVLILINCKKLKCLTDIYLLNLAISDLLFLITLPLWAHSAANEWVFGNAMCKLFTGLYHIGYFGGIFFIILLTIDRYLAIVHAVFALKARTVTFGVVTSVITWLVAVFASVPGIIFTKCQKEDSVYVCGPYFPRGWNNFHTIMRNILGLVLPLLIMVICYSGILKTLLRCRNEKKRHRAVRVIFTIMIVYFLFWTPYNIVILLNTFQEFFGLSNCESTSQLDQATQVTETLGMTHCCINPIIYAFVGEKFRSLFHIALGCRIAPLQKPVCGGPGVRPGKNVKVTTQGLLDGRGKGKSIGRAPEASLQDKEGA
Melanocortin receptor 3, sequence (P41968 whole entry): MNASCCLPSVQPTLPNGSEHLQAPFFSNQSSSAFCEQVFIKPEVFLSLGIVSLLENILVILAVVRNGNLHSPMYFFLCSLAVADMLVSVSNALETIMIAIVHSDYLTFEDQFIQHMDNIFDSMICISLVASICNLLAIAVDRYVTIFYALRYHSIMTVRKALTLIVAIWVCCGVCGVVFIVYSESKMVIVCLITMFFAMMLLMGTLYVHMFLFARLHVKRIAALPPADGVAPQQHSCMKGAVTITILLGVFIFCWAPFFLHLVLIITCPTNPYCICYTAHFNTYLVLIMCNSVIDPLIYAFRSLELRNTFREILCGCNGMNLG
Cytochrome P450 2C9, sequence (P11712 whole entry): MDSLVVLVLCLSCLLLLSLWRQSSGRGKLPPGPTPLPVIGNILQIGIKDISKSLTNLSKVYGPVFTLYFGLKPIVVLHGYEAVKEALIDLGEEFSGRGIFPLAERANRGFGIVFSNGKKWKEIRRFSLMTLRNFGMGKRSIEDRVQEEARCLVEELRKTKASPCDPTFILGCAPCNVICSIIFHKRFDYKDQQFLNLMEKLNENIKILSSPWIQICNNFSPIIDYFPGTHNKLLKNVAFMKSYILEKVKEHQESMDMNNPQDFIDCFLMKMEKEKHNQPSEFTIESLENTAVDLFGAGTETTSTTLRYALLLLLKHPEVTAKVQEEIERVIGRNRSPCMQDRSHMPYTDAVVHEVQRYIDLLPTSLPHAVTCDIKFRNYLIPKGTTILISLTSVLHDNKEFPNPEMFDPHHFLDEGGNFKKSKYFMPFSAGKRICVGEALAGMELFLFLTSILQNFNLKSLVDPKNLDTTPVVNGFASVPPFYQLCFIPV

On to `O=C1CCC(N2C(=O)c3ccccc3C2=O)C(=O)N1` (centres undefined) [THALIDOMIDE], for which the IC50 entry (against Cytochrome P450 2C9; against Melanocortin receptor 3; in data set [1]; in data set [2]; in data set [3]; against Leukotriene C4 synthase) was “Not Active” in each case. For the same compound, the IC50 result (in data set [4]; at Cytochrome P450 2C19; in data set [5]; at Progesterone receptor; in [6]) was “Not Active” each time. In addition, the Ki entry (at Cytochrome P450 2C9; in data set [3]; on Cytochrome P450 2C19) was “Not Active” each time.

Take `Cc1cccc(Nc2ccncc2S(=O)(=O)NC(=O)NC(C)C)c1` [TORSEMIDE]: the IC50 entry (against Cytochrome P450 2C9; on Melanocortin receptor 3; in data set [1]; in [2]; in data set [3]; on Leukotriene C4 synthase) was “Not Active” each time. For the same compound, the IC50 result (in data set [4]; at Cytochrome P450 2C19; in [5]; at Progesterone receptor; in data set [6]) was “Not Active” in each case. The Ki entry (on Cytochrome P450 2C9; in [3]; at Cytochrome P450 2C19) was “Not Active” in each case.

For `CC(C)C[C@H](NC(=O)[C@@H](O)[C@H](N)Cc1ccccc1)C(=O)O` [UBENIMEX], the IC50 entry (against Cytochrome P450 2C9; against Melanocortin receptor 3; in [1]; in data set [2]; in data set [3]; against Leukotriene C4 synthase) was “Not Active” throughout. Besides, the IC50 entry (in data set [4]; at Cytochrome P450 2C19; in data set [5]; on Progesterone receptor; in data set [6]) was “Not Active” in each case. The Ki result (on Cytochrome P450 2C9; in data set [3]; on Cytochrome P450 2C19) was “Not Active” each time.

In the case of `Cc1onc(-c2ccccc2)c1-c1ccc(S(N)(=O)=O)cc1` [VALDECOXIB], the IC50 entry (against Cytochrome P450 2C9; against Melanocortin receptor 3; in [1]; in data set [2]; in [3]; at Leukotriene C4 synthase) was “Not Active” in each case. The IC50 result (in [4]; at Cytochrome P450 2C19; in data set [5]; at Progesterone receptor; in [6]) was “Not Active” throughout. In addition, the Ki result (at Cytochrome P450 2C9; in data set [3]; on Cytochrome P450 2C19) was “Not Active” each time.

As to `CC(=O)CC(c1ccccc1)c1c(O)c2ccccc2oc1=O` (centres undefined) [WARFARIN], the IC50 entry (against Cytochrome P450 2C9; against Melanocortin receptor 3; in data set [1]; in [2]; in [3]; against Leukotriene C4 synthase) was “Not Active” each time. Besides, the IC50 result (in data set [4]; against Cytochrome P450 2C19; in data set [5]; at Progesterone receptor; in data set [6]) was “Not Active” in each case. Besides, the Ki result (on Cytochrome P450 2C9; in data set [3]; on Cytochrome P450 2C19) was “Not Active” each time.

Take `[Cl-].[Cl-].[Zn+2]` [ZINC CHLORIDE]: the IC50 entry (at Cytochrome P450 2C9; at Melanocortin receptor 3; in data set [1]; in [2]; in [3]; against Leukotriene C4 synthase) was “Not Active” in each case. Besides, the IC50 result (against Cytochrome P450 2C19; in data set [5]; at Progesterone receptor; in data set [6]) was “Not Active” each time. The Ki entry (at Cytochrome P450 2C9; in data set [3]; at Cytochrome P450 2C19) was “Not Active” in each case. The negative-log IC50 (pIC50) in [4] (read-out: IC50) was 5.96.
